This assay concerns the target T1, human PD-1 / PD-L1-Ig binding on Jurkat cell line over-expressing human PD-1 (Jurkat-PD-1) (Homo sapiens, UniProt Q15116).
T1 construct: expressed in transfected cells; host or cells: Jurkat
Put plainly: Jurkat-PD-1 Cell Binding High-Content Screening Assay (CBA). The assay is classed as cell-based. As to conditions: Jurkat-PD-1 cells, PE-labeled PD-L1-Ig 20 nM final; read-out: Jurkat HPD1_PDL1 IC50. An outline of the steps: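 Binding of fluorescent PD-L1-Ig (phycoerythrin linked via the Ig tag, 20 nM final) to PD-1-overexpressing Jurkat cells was imaged after a 2 h, 37° C compound pretreatment and 1 hour ligand incubation.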

Where a SMILES comes first, the peptide text is derived from it. Bridges are numbered along the chain shown (N, C = ends). [ ]: non-standard residue; d: D form. The star is where a group is joined. ξ: configuration not given here. Phe(3,4-Cl2) = N[C@@H](Cc1ccc(Cl)c(Cl)c1)C(=O)O; Phe(4-COOH) = N[C@@H](Cc1ccc(C(=O)O)cc1)C(=O)O; Bip = N[C@@H](Cc1ccc(-c2ccccc2)cc1)C(=O)O; Phe(3-Me) = Cc1cccc(C[C@H](N)C(=O)O)c1; 4Pal = N[C@@H](Cc1ccncc1)C(=O)O; Cha = N[C@@H](CC1CCCCC1)C(=O)O; Cit = NC(=O)NCCC[C@H](N)C(=O)O; Ile(3ξ) = CCC(C)[C@H](N)C(=O)O; Thr(3ξ) = CC(O)[C@H](N)C(=O)O; Carboxymethyl = O=C(O)C*; Orn = NCCC[C@H](N)C(=O)O; Dab = NCC[C@H](N)C(=O)O; Dap = NC[C@H](N)C(=O)O; Aib = CC(C)(N)C(=O)O

T1 sequence (Q15116 25-288): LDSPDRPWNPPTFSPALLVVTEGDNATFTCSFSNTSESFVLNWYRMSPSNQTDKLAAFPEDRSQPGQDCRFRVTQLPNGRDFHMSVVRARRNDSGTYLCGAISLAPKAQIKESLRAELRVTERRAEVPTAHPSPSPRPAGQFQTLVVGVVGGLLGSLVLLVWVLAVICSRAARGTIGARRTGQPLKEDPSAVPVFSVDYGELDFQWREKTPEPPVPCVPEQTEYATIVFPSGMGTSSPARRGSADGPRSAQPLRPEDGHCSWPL

In general, IC50 refers to the concentration that gives 50% inhibition. With `CCC(C)[C@@H]1NC(=O)[C@H](Cc2c[nH]c3ccccc23)NC(=O)[C@H](CC(=O)O)NC(=O)[C@H](Cc2ccc(OCC(=O)O)cc2)NC(=O)[C@H](C(C)O)NC(=O)CSC[C@@H](C(=O)N[C@@H](CC(N)=O)C(=O)O)NC(=O)[C@H](CO)NC(=O)[C@H](C(C)C)NC(=O)[C@H](CC(C)C)NC(=O)[C@H](CCN)NC(=O)[C@@H](CC(C)C)NC(=O)[C@H](CCCN)NC(=O)[C@H](C(C)CC)NC(=O)[C@H](Cc2ccc(-c3ccccc3)cc2)NC1=O` (stereo partly drawn) [Compound 2573] ({CH2CO}-[Thr(3ξ)]Y(Carboxymethyl)DW[Ile(3ξ)][Bip][Ile(3ξ)][Orn][dL][Dab]LVSCN-OH; thioether N-14), the IC50 was determined as 0.162 µM.
For `CCC(C)[C@@H]1NC(=O)[C@H](Cc2ccc(-c3ccccc3)cc2)NC(=O)[C@H](C(C)C)NC(=O)[C@H](Cc2cccc(C)c2)NC(=O)[C@H](CC(=O)O)NC(=O)[C@H](Cc2ccc(-c3cccc(C(=O)O)c3)cc2)NC(=O)[C@H](CN)NC(=O)CSC[C@@H](C(=O)N[C@@H](C)C(N)=O)NC(=O)[C@H]([C@@H](C)O)NC(=O)[C@H](C(C)C)NC(=O)[C@H](CC2CCCCC2)NC(=O)[C@H](CCN)NC(=O)[C@@H](CC(C)C)NC(=O)[C@H](CCCN)NC1=O` (some centres unmarked) [Compound 2224], the half-inhibitory concentration (IC50) was 0.0141 µM.
In the case of `CC(C)C[C@@H]1NC(=O)[C@H](Cc2c[nH]c3ccccc23)NC(=O)[C@H](CC(=O)O)NC(=O)[C@H](Cc2ccc(O)cc2)NC(=O)[C@H](Cc2ccccc2)NC(=O)CSC[C@@H](C(=O)NCC(N)=O)NC(=O)[C@H](CO)NC(=O)[C@H](C(C)C)NC(=O)[C@H](CC(C)C)NC(=O)[C@H](CC(N)=O)NC(=O)[C@@H](C)NC(=O)[C@H](CN)NC(=O)[C@H](C(C)C)NC(=O)[C@H](Cc2ccc(-c3ccccc3)cc2)NC1=O` [Compound 1077] ({CH2CO}-FYDWL[Bip]V[Dap][dA]NLVSCG-NH2; thioether N-14) it was 0.0467 µM.
For `Cc1cccc(C[C@@H]2NC(=O)[C@H](CC(=O)O)NC(=O)[C@H](Cc3ccc(C(=O)O)cc3)NC(=O)[C@H](Cc3ccncc3)NC(=O)CSC[C@@H](C(N)=O)NC(=O)[C@H](CC(=O)O)NC(=O)[C@H](C(C)C)NC(=O)[C@H](CC3CCCCC3)NC(=O)[C@H](CCN)NC(=O)[C@@H](CC(C)C)NC(=O)[C@H](CCCN)NC(=O)[C@H](CCCNC(N)=O)NC(=O)[C@H](Cc3ccc(-c4ccccc4)cc3)NC(=O)[C@H](C(C)C)NC2=O)c1` [Compound 2270] ({CH2CO}-[4Pal][Phe(4-COOH)]D[Phe(3-Me)]V[Bip][Cit][Orn][dL][Dab][Cha]VDC-NH2; thioether N-14) the value was 0.0245 µM; for `CC(C)[C@@H]1NC(=O)[C@H](Cc2c[nH]c3ccccc23)NC(=O)[C@H](CC(=O)O)NC(=O)[C@H](Cc2ccc(O)cc2)NC(=O)[C@H](CC(N)=O)NC(=O)CSC[C@@H](C(=O)N[C@@H](C)C(N)=O)NC(=O)[C@H]([C@@H](C)O)NC(=O)[C@H](C(C)C)NC(=O)[C@H](CC2CCCCC2)NC(=O)[C@H](CCN)NC(=O)[C@@H](Cc2ccccc2)NC(=O)[C@H](CCCN)NC(=O)[C@H](CCC(=O)O)NC(=O)[C@H](Cc2ccc(-c3ccccc3)cc2)NC1=O` [Compound 1435] ({CH2CO}-NYDWV[Bip]E[Orn][dF][Dab][Cha]VTCA-NH2; thioether N-14), 0.0531 µM; for `Cc1cccc(C[C@@H]2NC(=O)[C@H](CC(=O)O)NC(=O)[C@H](Cc3ccc(C(=O)O)cc3)NC(=O)[C@H](Cc3ccncc3)NC(=O)CSC[C@@H](C(=O)NC(C)(C)C(N)=O)NC(=O)[C@H](CO)NC(=O)[C@H](C(C)C)NC(=O)[C@H](CC3CCCCC3)NC(=O)[C@H](CCN)NC(=O)[C@@H](CC(C)C)NC(=O)[C@H](CCCN)NC(=O)[C@H](Cc3ccc(OCC(=O)O)cc3)NC(=O)[C@H](Cc3ccc(-c4ccccc4)cc3)NC(=O)[C@H](Cc3ccc(OCC(=O)O)cc3)NC2=O)c1` [Compound 2296] ({CH2CO}-[4Pal][Phe(4-COOH)]D[Phe(3-Me)]Y(Carboxymethyl)[Bip]Y(Carboxymethyl)[Orn][dL][Dab][Cha]VSC[Aib]-NH2; thioether N-14), 0.0088 µM.
Consider `CC(C)C[C@H]1NC(=O)[C@H](CCCN)NC(=O)[C@H](CCCNC(N)=O)NC(=O)[C@H](Cc2ccc(-c3ccccc3)cc2)NC(=O)[C@H](C(C)C)NC(=O)[C@H](Cc2c[nH]c3ccccc23)NC(=O)[C@H](CC(=O)O)NC(=O)[C@H](Cc2ccc(Cl)c(Cl)c2)NC(=O)[C@H](CN)NC(=O)CSC[C@@H](C(=O)N[C@@H](C)C(N)=O)NC(=O)[C@H]([C@@H](C)O)NC(=O)[C@H](C(C)C)NC(=O)[C@H](CC2CCCCC2)NC(=O)[C@H](CCN)NC1=O` [Compound 2130] ({CH2CO}-[Dap][Phe(3,4-Cl2)]DWV[Bip][Cit][Orn][dL][Dab][Cha]VTCA-NH2; thioether N-14), for which the IC50 worked out at 0.0966 µM.
Take `CC(C)C[C@@H]1NC(=O)[C@H](Cc2c[nH]c3ccccc23)NC(=O)[C@H](CC(=O)O)NC(=O)[C@H](Cc2ccc(O)cc2)NC(=O)[C@H](Cc2ccccc2)NC(=O)CSC[C@@H](C(=O)N[C@@H](C)C(N)=O)NC(=O)[C@H](CO)NC(=O)[C@H](C(C)C)NC(=O)[C@H](CC(C)C)NC(=O)[C@H](CC(N)=O)NC(=O)[C@@H](CC(C)C)NC(=O)[C@H](CCCN)NC(=O)[C@H](CCCNC(N)=O)NC(=O)[C@H](Cc2ccc(-c3ccccc3)cc2)NC1=O` [Compound 1234] ({CH2CO}-FYDWL[Bip][Cit][Orn][dL]NLVSCA-NH2; thioether N-14): the half-maximal inhibitory concentration (IC50) is 0.0366 µM.
In the case of `CC(C)C[C@H]1NC(=O)[C@H](CCCN)NC(=O)[C@H](CCC(=O)O)NC(=O)[C@H](Cc2ccc(-c3ccccc3)cc2)NC(=O)[C@H](C(C)C)NC(=O)[C@H](Cc2c[nH]c3ccccc23)NC(=O)[C@H](CC(=O)O)NC(=O)[C@H](Cc2ccc3ncccc3c2)NC(=O)[C@H](Cc2ccc(OCC(=O)O)cc2)NC(=O)CSC[C@@H](C(=O)N[C@@H](C)C(N)=O)NC(=O)[C@H]([C@@H](C)O)NC(=O)[C@H](C(C)C)NC(=O)[C@H](CC2CCCCC2)NC(=O)[C@H](CCN)NC1=O` [Compound 2178] it was 0.0527 µM; in that of `CC(C)[C@@H]1NC(=O)[C@H](Cc2c[nH]c3ccccc23)NC(=O)[C@H](CC(=O)O)NC(=O)[C@H](Cc2ccncc2)NC(=O)[C@H](CN)NC(=O)CSC[C@@H](C(=O)NCC(N)=O)NC(=O)[C@H](C(C)O)NC(=O)[C@H](C(C)C)NC(=O)[C@H](CC2CCCCC2)NC(=O)[C@H](CCN)NC(=O)[C@@H](C)NC(=O)[C@H](CCCN)NC(=O)[C@H](CCN)NC(=O)[C@H](Cc2ccc(-c3ccccc3)cc2)NC1=O` (some centres unmarked) [Compound 2543] ({CH2CO}-[Dap][4Pal]DWV[Bip][Dab][Orn][dA][Dab][Cha]V[Thr(3ξ)]CG-NH2; thioether N-14), 0.236 µM.
For `CC(C)C[C@@H]1NC(=O)[C@H](CCN)NC(=O)[C@@H](CC(C)C)NC(=O)[C@H](CCCN)NC(=O)[C@H](CCCNC(N)=O)NC(=O)[C@H](Cc2ccc(-c3ccccc3)cc2)NC(=O)[C@H](C(C)C)NC(=O)[C@H](Cc2c[nH]c3ccccc23)NC(=O)[C@H](CC(=O)O)NC(=O)[C@H](Cc2ccc(C(=O)O)cc2)NC(=O)[C@H](Cc2ccc(OCC(=O)O)cc2)NC(=O)CSC[C@@H](C(=O)N[C@@H](C)C(N)=O)NC(=O)[C@H]([C@@H](C)O)NC(=O)[C@H](C(C)C)NC1=O` [Compound 1252] ({CH2CO}-Y(Carboxymethyl)[Phe(4-COOH)]DWV[Bip][Cit][Orn][dL][Dab]LVTCA-NH2; thioether N-14) the value was 0.0215 µM.
